# Molecular target: T1, telomerase (HEK293T cell lysates) (Homo sapiens, UniProt O14746)
# T1 construct: effect of TBT oligonucleotide length in HEK293T cell lysates; endogenous in cells; host or cells: HEK293T cell lysate (CHAPS lysis)
# Assay: TBT assay, effect of telomerase oligonucleotide template length
# Type: biochemical
# Details: TBT luminescence, short (0.5 repeat), 2.5 repeat and 3.5 repeat oligonucleotides compared
# Excerpt: FIG. 16 illustrates a graphical representation showing the effect of TBT oligonucleotide length in HEK293T cell lysates according to an embodiment of the present invention.
# Design of the telomerase-specific oligonucleotide template attached to the magnetic bead is critical for maximizing sensitivity of the TBT assay. The minimal recognition DNA sequence for base-pairing between the RNA component of telomerase and the telomere end is 9 bases—TAGGGTTAG, however, multiple repeats of this sequence more accurately depict the nature of chromosome telomere ends and the scanning nature of enzymes used to achieve accurate base-pair recognition. Telomerase templates include those ranging from 1.5-3 hexameric repeats.
# Three forms of the oligonucleotide were tested. A short version containing a partial (0.5) repeat, a slightly longer version containing 2.5 repeats, and a longer version with 3.5 repeats. […] This increased dynamic range is likely to translate into increased sensitivity of the assay.
# T1 sequence (O14746 whole entry): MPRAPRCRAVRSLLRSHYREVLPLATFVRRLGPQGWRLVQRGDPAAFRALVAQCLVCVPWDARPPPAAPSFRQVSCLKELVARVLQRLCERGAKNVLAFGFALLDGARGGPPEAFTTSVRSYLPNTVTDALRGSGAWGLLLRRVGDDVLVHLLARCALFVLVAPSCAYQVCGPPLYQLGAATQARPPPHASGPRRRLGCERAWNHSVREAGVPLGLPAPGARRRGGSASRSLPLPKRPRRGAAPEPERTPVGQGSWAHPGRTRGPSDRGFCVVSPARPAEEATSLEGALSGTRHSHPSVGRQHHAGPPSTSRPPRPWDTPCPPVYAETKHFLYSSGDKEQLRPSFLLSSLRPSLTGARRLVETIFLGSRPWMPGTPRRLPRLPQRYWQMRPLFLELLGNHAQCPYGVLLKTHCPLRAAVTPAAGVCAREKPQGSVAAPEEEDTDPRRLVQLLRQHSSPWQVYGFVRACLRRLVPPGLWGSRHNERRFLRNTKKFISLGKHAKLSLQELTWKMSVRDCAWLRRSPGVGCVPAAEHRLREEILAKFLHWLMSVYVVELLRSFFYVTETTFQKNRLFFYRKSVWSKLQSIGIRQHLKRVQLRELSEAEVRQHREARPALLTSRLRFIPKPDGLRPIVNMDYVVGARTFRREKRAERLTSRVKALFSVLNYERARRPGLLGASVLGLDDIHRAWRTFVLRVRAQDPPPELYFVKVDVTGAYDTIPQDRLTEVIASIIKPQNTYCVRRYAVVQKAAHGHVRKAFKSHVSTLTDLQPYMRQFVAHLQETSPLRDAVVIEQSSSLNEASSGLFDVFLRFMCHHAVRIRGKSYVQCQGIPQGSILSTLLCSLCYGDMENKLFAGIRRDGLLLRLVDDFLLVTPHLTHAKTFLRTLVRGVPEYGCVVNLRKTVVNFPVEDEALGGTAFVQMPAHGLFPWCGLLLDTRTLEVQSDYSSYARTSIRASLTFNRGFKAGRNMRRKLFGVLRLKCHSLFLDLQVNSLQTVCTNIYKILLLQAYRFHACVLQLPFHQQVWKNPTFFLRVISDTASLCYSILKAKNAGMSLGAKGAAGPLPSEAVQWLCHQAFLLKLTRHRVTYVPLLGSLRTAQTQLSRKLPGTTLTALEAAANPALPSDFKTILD
substance,measurement,value
"longer version: Long human telomerase recognition nucleotide sequence, 5′ thiol-linked, 3.5 repeats, attached to magnetic bead (DNA TTTTTTAATCCGTCGAGCAGAGTTAGGGTTAGGGTTAGGGTTAGGGTTAG; 5' thiol linker, attached to magnetic bead, further chemistry not given here)",absolute signal relative to the background signal (no telomerase extract),better absolute signal relative to the background signal

# Reference: patent publication US20100261162A1, “Methods of assaying for telomerase activity and compositions related to same” (priority 2005, published 2010)
